Where a chain is given by its changes, count along the chain named.
Columns and labels:
Format in all cases: binding
MLKL [1] = target: T1, MLKL (Homo sapiens, UniProt Q8NB16, D107A/E111A); experiment: thermal shift assay with ATP titration
T1 construct: full-length hMLKL(2–471)
T1 sequence (Q8NB16 2-471 D107A/E111A): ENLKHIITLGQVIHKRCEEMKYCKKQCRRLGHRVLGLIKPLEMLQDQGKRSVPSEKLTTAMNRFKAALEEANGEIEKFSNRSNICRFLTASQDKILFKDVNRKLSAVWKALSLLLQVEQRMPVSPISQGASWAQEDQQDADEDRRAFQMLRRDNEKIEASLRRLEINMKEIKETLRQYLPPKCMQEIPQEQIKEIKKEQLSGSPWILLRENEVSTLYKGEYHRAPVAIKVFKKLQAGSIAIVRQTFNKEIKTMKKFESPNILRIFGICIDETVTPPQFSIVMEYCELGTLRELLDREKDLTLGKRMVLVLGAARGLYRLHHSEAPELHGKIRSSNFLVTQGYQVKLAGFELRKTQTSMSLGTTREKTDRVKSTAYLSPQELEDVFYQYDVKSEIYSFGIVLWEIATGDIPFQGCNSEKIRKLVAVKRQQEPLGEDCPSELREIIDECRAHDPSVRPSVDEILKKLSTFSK

MLKL [2] = target: T2, MLKL (Homo sapiens, UniProt Q8NB16, K157A); experiment: thermal shift assay with ATP titration
T2 construct: full-length hMLKL(2–471)
T2 sequence (Q8NB16 2-471 K157A): T1 sequence (Q8NB16 2-471 D107A/E111A) with A106D, A110E, K156A

MLKL [3] = target: T3, MLKL (Homo sapiens, UniProt Q8NB16, E351K); experiment: thermal shift assay with ATP titration; HDX-MS protection around the ATP pocket
T3 construct: full-length hMLKL(2–471)
T3 sequence (Q8NB16 2-471 E351K): T1 sequence (Q8NB16 2-471 D107A/E111A) with A106D, A110E, E350K

MLKL [4] = target: T4, MLKL (Homo sapiens, UniProt Q8NB16); experiment: thermal shift assay (SYPRO Orange) with ATP titration, no divalent cations; supported by AUC
T4 construct: full-length hMLKL(2–471)
T4 sequence (Q8NB16 2-471): T1 sequence (Q8NB16 2-471 D107A/E111A) with A106D, A110E

MLKL [5] = target: T5, MLKL (Homo sapiens, UniProt Q8NB16, E258K); experiment: thermal shift assay with ATP titration
T5 construct: full-length hMLKL(2–471)
T5 sequence (Q8NB16 2-471 E258K): T1 sequence (Q8NB16 2-471 D107A/E111A) with A106D, A110E, E257K

MLKL [6] = target: T6, MLKL (Homo sapiens, UniProt Q8NB16, S358E/T357E); experiment: thermal shift assay with ATP titration
T6 construct: full-length hMLKL(2–471)
T6 sequence (Q8NB16 2-471 T357E/S358E): T1 sequence (Q8NB16 2-471 D107A/E111A) with A106D, A110E, T356E, S357E

MLKL [7] = target: T7, MLKL (Homo sapiens, UniProt Q8NB16, G330E); experiment: thermal shift assay with ATP titration
T7 construct: full-length hMLKL(2–471)
T7 sequence (Q8NB16 2-471 G330E): T1 sequence (Q8NB16 2-471 D107A/E111A) with A106D, A110E, G329E

Nc1ncnc2c1ncn2[C@@H]1O[C@H](COP(=O)(O)OP(=O)(O)OP(=O)(O)O)[C@@H](O)[C@H]1O [ATP]
Kd (MLKL [1]): 23 ± 2 µM
Kd (MLKL [2]): 164 ± 31 µM
Kd (MLKL [3]): 26 ± 6 µM
Kd (MLKL [4]): 36 ± 4 µM
Kd (MLKL [5]): 24 ± 2 µM
Kd (MLKL [6]): 56 ± 8 µM
Kd (MLKL [7]): 28 ± 6 µM
